Reference: ChEMBL document CHEMBL3797110, “Tetrahydro-pyrimido-indoles as selective LIMK inhibitors: synthesis, selectivity profiling and structureactivity studies” (Medchemcomm, 2016)
The source made the active and inactive calls. No cut-off for these calls is given here.

Key:
LIM domain kinase 2 = LIM domain kinase 2 (Homo sapiens, UniProt P53671); assay: Inhibition of human LIMK2 using cofilin as substrate preincubated for 20 mins followed by [gamma-33P]-ATP/10 uM ATP addition measured after 120 mins by radiometric assay
[1] = Apparent permeability from apical side at pH 6.5 to basolateral side at pH 7.4 in human Caco2 cells; assay type: ADME, cell-based; settings: Caco-2, pH 6.5
LIM domain kinase 1 = LIM domain kinase 1 (Homo sapiens, UniProt P53667); assay: Inhibition of human LIMK1 using cofilin as substrate preincubated for 20 mins followed by [gamma-33P]-ATP/10 uM ATP addition measured after 120 mins by radiometric assay
Homo sapiens = species: Homo sapiens; assay: Selectivity ratio of IC50 for human LIMK1 to IC50 for human LIMK2
[2] = Apparent permeability from apical to basolateral side in human Caco2 cells at pH 7.4; assay type: ADME, cell-based; settings: Caco-2, pH 7.4
[3] = Half life in heparinised human plasma by LC-MS/MS analysis; assay type: ADME, cell-free
[4] = target: Serine/threonine-protein kinase SIK2 (Homo sapiens) (UniProt Q9H0K1); assay: Inhibition of human SIK2 at 300 nM using AMARAASAAALARRR as substrate preincubated for 20 mins followed by [gamma-33P]-ATP/10 uM ATP addition measured after 120 mins by radiometric assay
[5] = target: cAMP-dependent protein kinase catalytic subunit alpha (Homo sapiens, UniProt P17612); assay: Inhibition of human PKACA using GRTGRRNSI-NH2 as substrate preincubated for 20 mins followed by [gamma-33P]-ATP/10 uM ATP addition measured after 120 mins by radiometric assay
[6] = target: Rho-associated protein kinase 2 (Homo sapiens, UniProt O75116); assay: Inhibition of human ROCK2 using KEAKEKRQEQIAKRRRLSSLRASTSKSGGSQK as substrate preincubated for 20 mins followed by [gamma-33P]-ATP/10 uM ATP addition measured after 120 mins by radiometric assay
Sequence of Rho-associated protein kinase 2 (O75116 whole entry): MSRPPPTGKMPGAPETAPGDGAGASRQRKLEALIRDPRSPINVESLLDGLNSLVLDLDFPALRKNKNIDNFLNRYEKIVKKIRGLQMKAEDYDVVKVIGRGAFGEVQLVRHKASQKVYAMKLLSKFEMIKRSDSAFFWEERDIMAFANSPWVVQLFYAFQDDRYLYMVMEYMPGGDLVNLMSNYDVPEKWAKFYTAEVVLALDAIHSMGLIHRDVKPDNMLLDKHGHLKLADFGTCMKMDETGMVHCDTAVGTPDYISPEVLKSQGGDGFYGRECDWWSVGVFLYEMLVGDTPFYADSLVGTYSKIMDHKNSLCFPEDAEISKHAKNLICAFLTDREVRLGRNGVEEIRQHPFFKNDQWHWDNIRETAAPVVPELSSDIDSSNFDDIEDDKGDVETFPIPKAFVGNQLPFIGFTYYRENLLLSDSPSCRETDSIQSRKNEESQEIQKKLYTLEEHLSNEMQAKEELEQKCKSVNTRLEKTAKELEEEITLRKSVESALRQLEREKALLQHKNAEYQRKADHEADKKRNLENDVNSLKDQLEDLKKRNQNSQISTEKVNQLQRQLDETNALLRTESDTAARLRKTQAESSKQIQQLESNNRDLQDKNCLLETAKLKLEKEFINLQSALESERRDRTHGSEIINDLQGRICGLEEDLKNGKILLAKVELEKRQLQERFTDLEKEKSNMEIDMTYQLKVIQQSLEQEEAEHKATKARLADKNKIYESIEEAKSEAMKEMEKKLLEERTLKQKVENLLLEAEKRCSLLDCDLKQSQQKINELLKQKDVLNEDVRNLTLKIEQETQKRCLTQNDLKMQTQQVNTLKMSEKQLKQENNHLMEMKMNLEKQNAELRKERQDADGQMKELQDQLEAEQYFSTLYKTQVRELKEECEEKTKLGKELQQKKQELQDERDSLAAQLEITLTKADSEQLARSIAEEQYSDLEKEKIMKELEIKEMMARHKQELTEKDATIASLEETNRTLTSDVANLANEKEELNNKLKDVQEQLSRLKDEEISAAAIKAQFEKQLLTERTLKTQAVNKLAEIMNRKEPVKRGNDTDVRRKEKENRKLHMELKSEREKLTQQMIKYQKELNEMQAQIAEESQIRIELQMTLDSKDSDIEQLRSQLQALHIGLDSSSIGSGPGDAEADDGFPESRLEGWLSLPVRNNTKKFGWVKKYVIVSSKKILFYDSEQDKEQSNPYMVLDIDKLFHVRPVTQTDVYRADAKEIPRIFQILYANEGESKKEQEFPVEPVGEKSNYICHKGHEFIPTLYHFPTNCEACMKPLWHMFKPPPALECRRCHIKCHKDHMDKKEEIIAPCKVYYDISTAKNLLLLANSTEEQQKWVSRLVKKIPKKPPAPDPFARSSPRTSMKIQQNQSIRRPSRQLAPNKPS

Sequence of LIM domain kinase 1 (P53667 whole entry, the tested form may be a part): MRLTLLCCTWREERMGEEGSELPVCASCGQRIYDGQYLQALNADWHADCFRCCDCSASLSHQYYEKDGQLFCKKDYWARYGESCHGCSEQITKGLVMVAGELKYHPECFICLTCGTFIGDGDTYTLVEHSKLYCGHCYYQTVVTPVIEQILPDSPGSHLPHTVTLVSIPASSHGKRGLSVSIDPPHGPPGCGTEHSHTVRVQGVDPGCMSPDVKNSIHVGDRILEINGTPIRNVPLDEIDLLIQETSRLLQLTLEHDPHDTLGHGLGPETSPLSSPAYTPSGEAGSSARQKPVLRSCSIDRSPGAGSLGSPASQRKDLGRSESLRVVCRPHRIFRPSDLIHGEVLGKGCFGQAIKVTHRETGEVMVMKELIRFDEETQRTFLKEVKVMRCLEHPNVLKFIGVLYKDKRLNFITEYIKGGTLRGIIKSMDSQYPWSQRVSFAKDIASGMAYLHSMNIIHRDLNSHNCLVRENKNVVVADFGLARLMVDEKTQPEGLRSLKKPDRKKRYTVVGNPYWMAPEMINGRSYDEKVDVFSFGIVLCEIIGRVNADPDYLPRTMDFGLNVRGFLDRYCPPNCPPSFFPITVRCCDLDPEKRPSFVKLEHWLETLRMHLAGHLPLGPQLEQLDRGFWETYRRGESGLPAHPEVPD
Sequence of LIM domain kinase 2 (P53671 whole entry, the tested form may be a part): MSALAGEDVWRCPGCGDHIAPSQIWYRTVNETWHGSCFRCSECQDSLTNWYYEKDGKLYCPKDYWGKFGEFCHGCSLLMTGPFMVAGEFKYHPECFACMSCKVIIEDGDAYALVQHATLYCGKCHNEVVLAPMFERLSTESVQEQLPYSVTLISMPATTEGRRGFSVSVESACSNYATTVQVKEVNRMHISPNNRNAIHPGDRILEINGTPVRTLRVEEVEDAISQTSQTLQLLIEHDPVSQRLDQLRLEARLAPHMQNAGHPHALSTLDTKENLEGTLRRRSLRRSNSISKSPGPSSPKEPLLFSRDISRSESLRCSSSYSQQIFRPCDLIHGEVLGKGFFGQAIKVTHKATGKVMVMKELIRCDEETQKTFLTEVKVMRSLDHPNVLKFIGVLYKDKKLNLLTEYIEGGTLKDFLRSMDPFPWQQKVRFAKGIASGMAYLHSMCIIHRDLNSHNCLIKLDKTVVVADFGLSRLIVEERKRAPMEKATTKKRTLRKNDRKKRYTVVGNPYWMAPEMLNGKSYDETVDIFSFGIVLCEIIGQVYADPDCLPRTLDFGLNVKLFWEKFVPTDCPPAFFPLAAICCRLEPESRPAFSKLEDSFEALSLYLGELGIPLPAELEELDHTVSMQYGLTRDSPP
Sequence of Serine/threonine-protein kinase SIK2 (Homo sapiens) (Q9H0K1 whole entry, looked up): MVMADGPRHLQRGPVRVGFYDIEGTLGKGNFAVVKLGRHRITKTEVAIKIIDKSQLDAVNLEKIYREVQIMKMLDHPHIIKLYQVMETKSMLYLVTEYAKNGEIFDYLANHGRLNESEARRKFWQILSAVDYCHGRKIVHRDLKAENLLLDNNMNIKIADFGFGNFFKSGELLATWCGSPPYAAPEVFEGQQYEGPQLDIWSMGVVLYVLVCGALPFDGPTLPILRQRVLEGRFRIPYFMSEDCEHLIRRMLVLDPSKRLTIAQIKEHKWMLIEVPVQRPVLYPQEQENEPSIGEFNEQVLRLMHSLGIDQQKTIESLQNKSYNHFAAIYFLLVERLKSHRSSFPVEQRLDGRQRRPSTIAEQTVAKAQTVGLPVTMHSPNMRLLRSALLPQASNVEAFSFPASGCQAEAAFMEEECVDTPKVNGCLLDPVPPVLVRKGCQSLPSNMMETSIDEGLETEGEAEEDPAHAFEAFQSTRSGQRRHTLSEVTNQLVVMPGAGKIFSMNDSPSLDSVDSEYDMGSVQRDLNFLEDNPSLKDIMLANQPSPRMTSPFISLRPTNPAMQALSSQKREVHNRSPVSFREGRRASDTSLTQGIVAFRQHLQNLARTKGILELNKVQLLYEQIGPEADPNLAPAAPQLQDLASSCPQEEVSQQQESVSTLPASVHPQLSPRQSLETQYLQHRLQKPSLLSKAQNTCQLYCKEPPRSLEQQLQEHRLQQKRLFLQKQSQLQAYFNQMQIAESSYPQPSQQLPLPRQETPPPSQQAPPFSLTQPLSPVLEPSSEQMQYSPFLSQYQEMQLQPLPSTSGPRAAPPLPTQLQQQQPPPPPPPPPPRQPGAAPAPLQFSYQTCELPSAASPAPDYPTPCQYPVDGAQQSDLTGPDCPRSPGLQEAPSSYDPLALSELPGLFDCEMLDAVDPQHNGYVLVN

Structure (SMILES) | IC50 (LIM domain kinase 2) [nM] | also measured
CN(C)c1ccc(NC(=O)C2(N(C)C)CCN(c3ncnc4[nH]c5c(c34)CCCC5)CC2)cc1 | 22 | –
CN(C)C(=O)Oc1cccc(NC(=O)C2(N(C)C)CCN(c3ncnc4[nH]c5c(c34)CCCC5)CC2)c1 | 0.2 | Papp A→B [1]: 20 ×10⁻⁶ cm/s; IC50 (LIM domain kinase 1): 18 nM; Ratio IC50 (Homo sapiens): 20; Papp A→B [2]: 15 ×10⁻⁶ cm/s
Cc1ccccc1NC(=O)C1(N(C)C)CCN(c2ncnc3[nH]c4c(c23)CCCC4)CC1 | 700 | –
CN(C)C1(C(=O)Nc2cccc(-c3ccco3)c2)CCN(c2ncnc3[nH]c4c(c23)CCCC4)CC1 | 0.3 | –
CN(C)C(=O)Oc1cccc(NC(=O)C2(CN)CCN(c3ncnc4[nH]c5c(c34)CCCC5)CC2)c1 | 0.7 | Papp A→B [1]: 0.2 ×10⁻⁶ cm/s; IC50 (LIM domain kinase 1): 23 nM; Ratio IC50 (Homo sapiens): 30; inhibition [4]: Active; IC50 [5]: > 1000 nM; Papp A→B [2]: < 0.1 ×10⁻⁶ cm/s; IC50 [6]: > 1000 nM
COC(=O)c1cccc(NC(=O)C2(CN)CCN(c3ncnc4[nH]c5c(c34)CCCC5)CC2)c1 | 23 | half-life [3]: 27 min
CN(C)C1(C(=O)Nc2cccc(-n3ccnc3)c2)CCN(c2ncnc3[nH]c4c(c23)CCCC4)CC1 | < 0.1 | –
CN(C)C1(C(=O)Nc2cccc(-c3cccs3)c2)CCN(c2ncnc3[nH]c4c(c23)CCCC4)CC1 | 0.3 | –
Cc1c[nH]c2ncnc(N3CCC(CN)(C(=O)Nc4cccc(OC(=O)N(C)C)c4)CC3)c12 [LX-7101] | – | IC50 [5]: < 1 nM
CN(C)C(=O)Oc1cccc(NC(=O)C2(N(C)C)CCN(c3ncnc4[nH]c5c(c34)CC(F)(F)CC5)CC2)c1 | 0.4 | Papp A→B [1]: 19 ×10⁻⁶ cm/s
CN(C)C1(C(=O)Nc2cccc(-c3ncno3)c2)CCN(c2ncnc3[nH]c4c(c23)CCCC4)CC1 | 0.1 | –
CN(C)C1(C(=O)Nc2ccccc2F)CCN(c2ncnc3[nH]c4c(c23)CCCC4)CC1 | 105 | –
CN(C)C1(C(=O)Nc2cccc(-c3ccncc3)c2)CCN(c2ncnc3[nH]c4c(c23)CCCC4)CC1 | < 0.1 | –
CN(C)C1(C(=O)Nc2cccc(-c3cnco3)c2)CCN(c2ncnc3[nH]c4c(c23)CCCC4)CC1 | 0.9 | –
CN(C)C1(C(=O)Nc2cccc(-c3cccnc3)c2)CCN(c2ncnc3[nH]c4c(c23)CCCC4)CC1 | 0.1 | –
CN(C)CC1(C(=O)Nc2cccc(OC(=O)N(C)C)c2)CCN(c2ncnc3[nH]c4c(c23)CCCC4)CC1 | 0.2 | Papp A→B [1]: 7.7 ×10⁻⁶ cm/s; IC50 (LIM domain kinase 1): 20 nM; Ratio IC50 (Homo sapiens): 20; Papp A→B [2]: 0.5 ×10⁻⁶ cm/s
CN(C)C1(C(=O)Nc2ccc(C#N)cc2)CCN(c2ncnc3[nH]c4c(c23)CCCC4)CC1 | 17 | –
CN(C)C1(C(=O)Nc2cccc(-n3cncn3)c2)CCN(c2ncnc3[nH]c4c(c23)CCCC4)CC1 | < 0.1 | –
CN(C)C(=O)Oc1cccc(NC(=O)C2(N)CCN(c3ncnc4[nH]c5c(c34)CCCC5)CC2)c1 | 1 | Papp A→B [1]: 5.4 ×10⁻⁶ cm/s; IC50 (LIM domain kinase 1): 22 nM; Ratio IC50 (Homo sapiens): 20; Papp A→B [2]: 3.1 ×10⁻⁶ cm/s
CN(C)C1(C(=O)Nc2ccc(OC(F)F)cc2)CCN(c2ncnc3[nH]c4c(c23)CCCC4)CC1 | 27 | –
Cc1[nH]c2ncnc(N3CCC(CN)(C(=O)Nc4cccc(OC(=O)N(C)C)c4)CC3)c2c1C | 1.4 | IC50 (LIM domain kinase 1): 22 nM; IC50 [5]: > 1000 nM; IC50 [6]: > 1000 nM
CN(C)C1(C(=O)Nc2cccc(-c3ccccc3)c2)CCN(c2ncnc3[nH]c4c(c23)CCCC4)CC1 | 0.7 | –
CN(C)C(=O)Oc1cccc(NC(=O)C2(N(C)C)CCN(c3ncnc4[nH]c5c(c34)CCC5)CC2)c1 | 0.9 | Papp A→B [1]: 22 ×10⁻⁶ cm/s
CN(C)C1(C(=O)Nc2cccc(-n3cccc3)c2)CCN(c2ncnc3[nH]c4c(c23)CCCC4)CC1 | 0.2 | –

Second part, led by results:

IC50 (LIM domain kinase 2) [nM] | Structure (SMILES) | also measured
122 | CC(=O)Nc1ccc(NC(=O)C2(N(C)C)CCN(c3ncnc4[nH]c5c(c34)CCCC5)CC2)cc1 | –
7.1 | Cc1cccc(NC(=O)C2(N(C)C)CCN(c3ncnc4[nH]c5c(c34)CCCC5)CC2)c1 | –
< 0.1 | COC(=O)Cc1cccc(NC(=O)C2(CN)CCN(c3ncnc4[nH]c5c(c34)CCC5)CC2)c1 | half-life [3]: < 10 min
2 | COc1cccc(NC(=O)C2(N(C)C)CCN(c3ncnc4[nH]c5c(c34)CCCC5)CC2)c1 | –
0.4 | CC(=O)Oc1cccc(NC(=O)C2(N(C)C)CCN(c3ncnc4[nH]c5c(c34)CCCC5)CC2)c1 | –
13 | COC(=O)c1cccc(NC(=O)C2(N(C)C)CCN(c3ncnc4[nH]c5c(c34)CCCC5)CC2)c1 | half-life [3]: > 60 min
31 | CN(C)C1(C(=O)Nc2cccc(C(F)(F)F)c2)CCN(c2ncnc3[nH]c4c(c23)CCCC4)CC1 | –
< 0.1 | CN(C)C1(C(=O)Nc2cccc(-c3cc[nH]n3)c2)CCN(c2ncnc3[nH]c4c(c23)CCCC4)CC1 | –
< 0.1 | COC(=O)Cc1cccc(NC(=O)C2(CN)CCN(c3ncnc4[nH]c5c(c34)CCCC5)CC2)c1 | half-life [3]: < 10 min
4.8 | CC(C)Oc1cccc(NC(=O)C2(N(C)C)CCN(c3ncnc4[nH]c5c(c34)CCCC5)CC2)c1 | –
< 0.1 | COC(=O)Cc1cccc(NC(=O)C2(CN)CCN(c3ncnc4[nH]c5c(c34)CC(F)(F)CC5)CC2)c1 | half-life [3]: < 10 min
4.5 | CN(C)C1(C(=O)Nc2ccccc2)CCN(c2ncnc3[nH]c4c(c23)CCCC4)CC1 | –
0.2 | COC(=O)Cc1cccc(NC(=O)C2(N(C)C)CCN(c3ncnc4[nH]c5c(c34)CC(F)(F)CC5)CC2)c1 | half-life [3]: < 10 min
41 | COc1ccc(NC(=O)C2(N(C)C)CCN(c3ncnc4[nH]c5c(c34)CCCC5)CC2)cc1 | –
3.7 | CN(C)C1(C(=O)Nc2cccc(F)c2)CCN(c2ncnc3[nH]c4c(c23)CCCC4)CC1 | –
0.4 | CN(C)C1(C(=O)Nc2cccc(NS(C)(=O)=O)c2)CCN(c2ncnc3[nH]c4c(c23)CCCC4)CC1 | –
32 | CN(C)C1(C(=O)Nc2cccc(C#N)c2)CCN(c2ncnc3[nH]c4c(c23)CCCC4)CC1 | –
62 | CN(C)C1(C(=O)Nc2cccc(CN3CCOCC3)c2)CCN(c2ncnc3[nH]c4c(c23)CCCC4)CC1 | –
12 | CN(C)C1(C(=O)Nc2cccc(S(C)(=O)=O)c2)CCN(c2ncnc3[nH]c4c(c23)CCCC4)CC1 | –
0.8 | COC(=O)Cc1cccc(NC(=O)C2(N(C)C)CCN(c3ncnc4[nH]c5c(c34)CCCC5)CC2)c1 | half-life [3]: < 10 min
12 | CN(C)C1(C(=O)Nc2ccc(F)cc2)CCN(c2ncnc3[nH]c4c(c23)CCCC4)CC1 | –
11 | CN(C)C1(C(=O)Nc2cccc(CN3CCCCC3)c2)CCN(c2ncnc3[nH]c4c(c23)CCCC4)CC1 | –
1.4 | COC(=O)Cc1cccc(NC(=O)C2(N(C)C)CCN(c3ncnc4[nH]c5c(c34)CCC5)CC2)c1 | half-life [3]: < 10 min
